# From the NIST ThermoML archive (doi:10.1016/j.jct.2012.08.026)
# Numbers after ± are expanded uncertainties.
# Settings: 308.15 K, 101.33 kPa, Liquid; for viscosity: Capillary tube (Ostwald / Ubbelohde) method; for speed of sound: Pulse-echo method; for mass density: Vibrating tube method
SMILES,viscosity [mPa·s],speed of sound [m/s],mass density [kg/m3]
"CCC(O)CO (stereo not given) [1,2-butanediol]",30.29 ± 0.56,1422.6 ± 3.7,988.25 ± 1.1
"CC(O)CCO (stereo not given) [1,3-butanediol]",54.24 ± 1.1,1496 ± 3.2,991.28 ± 0.75
"OCCCCO [1,4-butanediol]",47.38 ± 0.94,1577.8 ± 3.2,1003.95 ± 0.76
"CC(O)C(C)O (stereo not given) [2,3-butanediol]",51.38 ± 1.1,1456.6 ± 3.7,990.72 ± 1.1
O=C1CCCN1 [2-pyrrolidinone],8.922 ± 0.095,1600 ± 3.3,1097.14 ± 0.85
